The text below walks through data of patent US20190015361A1 (Maxwell Biosciences, Inc., priority 2017, published 2019).

The term Kd denotes the constant that tells how readily two partners part at equilibrium.

For test [1], the target named is Aβ40 (t=0 days), Aβ42 (t=0 days), Aβ42 (t=24 days). Description: SPRi interaction with the three immobilized Aβ forms. It counts as binding, human.
The target in test [2] is Aβ42 monomers (Homo sapiens, UniProt P05067). The conditions noted are these: Aβ42 monomers immobilized on SPR chip; cited from earlier work.
For test [3], the target named is Aβ42 oligomers (Homo sapiens, UniProt P05067). The conditions noted are these: Aβ42 oligomers immobilized on SPR chip; cited from earlier work.
Test [4] deals with T1, Aβ42 (Homo sapiens, UniProt P05067).
T1 construct: Aβ42 (residues 1-42 of the Aβ peptide); purchased AnaSpec (Fremont Calif., USA)
Description: Transmission electron microscopy of Aβ42 fibril formation. The method, then: For TEM and CD analysis, the samples were prepared as described in Brogi et al. [REF: Disease-modifying anti-Alzheimer's drugs: inhibitors of human cholinesterases interfering with β-amyloid aggregation. Brogi S, Butini S, Maramai S, Colombo R, Verga L, Lanni C, De Lorenzi E, Lamponi S, Andreassi M, Bartolini M, Andrisano V, Novellino E, Campiani G, Brindisi M, Gemma S. CNS Neurosci Ther. 2014 Jui; 20(7):624-32. Pubmed ID PMID 24935788], and analyzed at 50 and/or 100 μM concentrations. Briefly, to 1 mg lyophilized Aβ42 powder (AnaSpec) […] of 1% NH4OH solution was added. After 1 minute sonication, the solution was diluted with 20 mM phosphate buffer, pH 7.4, to the desired concentration, and divided into aliquots, which were freeze-dried and stored at −80° C. Each lyophilized peptide aliquot was resuspended in 20 mM phosphate buffer, pH 7.4 immediately before use. Samples were sonicated 3 min in an ultrasonic bath, to break down pre-formed aggregates and increase the peptide's effective concentration [REF: Sonication of proteins causes formation of aggregates that resemble amyloid. Stathopulos P B. Scholz G A, Hwang Y M, Rumfeldt J A, Lepock J R, Meiering E M. Protein Sci. 2004 November; 13(11):3017-27. Pubmed ID PMID 15459333]. […] Samples were analyzed either immediately after solubilization, or after different lengths of incubation time, as noted in FIG. legends. […]

The target of test [5] is T1, Aβ42. Description: Circular dichroism conformational analysis of Aβ42. The conditions noted are these: 50 μM Aβ42 in the presence of LL-37 (1:1), t=0 and 24 hours. As to the method: For TEM and CD analysis, the samples were prepared as described in Brogi et al. [REF: Disease-modifying anti-Alzheimer's drugs: inhibitors of human cholinesterases interfering with β-amyloid aggregation. Brogi S, Butini S, Maramai S, Colombo R, Verga L, Lanni C, De Lorenzi E, Lamponi S, Andreassi M, Bartolini M, Andrisano V, Novellino E, Campiani G, Brindisi M, Gemma S. CNS Neurosci Ther. 2014 Jui; 20(7):624-32. Pubmed ID PMID 24935788], and analyzed at 50 and/or 100 μM concentrations. Briefly, to 1 mg lyophilized Aβ42 powder (AnaSpec) […] of 1% NH4OH solution was added. […] Samples were analyzed either immediately after solubilization, or after different lengths of incubation time, as noted in FIG. legends.
CD spectra were collected at 20° C. using a Jasco-810 spectrophotometer and a quartz cuvette with a 0.1 cm path length. […] Molar mean residue ellipticity [θ] is expressed in degrees cm2 dmol−1, and calculated as [θ]=θobs MWR/(10 l c), where θ is observed ellipticity in degrees; MWR, peptide mean residue molar weight; l, the optical path length in cm; and c, peptide concentration in […].
As in TEM analysis, spectra were recorded immediately after dissolving peptide according to [REF: Disease-modifying anti-Alzheimer's drugs: inhibitors of human cholinesterases interfering with β-amyloid aggregation. […]
On the technique in general: Circular dichroism is widely used to follow secondary structure.

Test [6] relates to human microglia. Description: TNFα and IL-6 release from microglia (ELISA). It is filed as cell-based. The conditions noted are these: microglial cell-free supernatant, 30 μM, 2 days' incubation.
The target of test [7] is Aβ40 (t = 0 days) (Homo sapiens, UniProt P05067). Description: SPRi equilibrium binding of LL-37 to immobilized Aβ40.
Test [8] addresses Aβ42 (t = 0 days) (Homo sapiens, UniProt P05067). Description: SPRi equilibrium binding of LL-37 to immobilized Aβ42 (low-MW oligomers). The conditions noted are these: equilibrium fit.
The target of test [9] is Aβ42 (t = 24 days) (Homo sapiens, UniProt P05067). As to the kind of experiment: SPRi equilibrium binding of LL-37 to immobilized Aβ42 (high-MW oligomers). The conditions noted are these: equilibrium fit.
Aβ42 (t = 24 days), sequence (P05067 672-713 limits assumed): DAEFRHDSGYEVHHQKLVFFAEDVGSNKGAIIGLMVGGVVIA

T1 sequence (P05067 672-713 limits assumed): as above
Aβ42 (t = 0 days), sequence (P05067 672-713 limits assumed): as above
Aβ40 (t = 0 days), sequence (P05067 672-711): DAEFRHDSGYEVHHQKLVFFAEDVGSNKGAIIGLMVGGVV
Aβ42 monomers, sequence (P05067 672-713 limits assumed): as the sequence (P05067 672-713 limits assumed) above
Aβ42 oligomers, sequence (P05067 672-713 limits assumed): as above

Regarding “same amino acid composition as natural LL-37, sequence GLKLRFEFSKIKGEFLKTPEVRFRDIKLKDNRISVQR; from AnaSpec [scrambled LL-37, reference compound]”, the binding affinities constants entry in [1] (same equilibrium analysis, control scrambled-sequence peptide) was “could not be calculated”.

`CC[C@]12C=CCN3CC[C@]4(C(=C(C(=O)OC)C1)Nc1ccccc14)[C@@H]32` [tabersonine]: the Kd is 69 µM in [2] and 535 µM in [3].

Regarding LL-37, in test [1] (analyte flowed onto the SPRi chip for 10 minutes, all three Aβ forms), the SPRi interaction signal entry is “specific and reversible interactions”. Further, the “Aβ42 fibril formation (TEM)” value in [4] (50 μM Aβ42 co-incubated with equimolar LL-37, t=0, 3 and 9 days) is reported as “inhibits Aβ42 fibril formation”. Moreover, the “fibrils seen by TEM” value in test [4] (50 μM Aβ42 with equimolar LL-37, t=9 days) is recorded as “no visible fibrils present”. For the same compound, the “Aβ42 secondary structure (CD)” value in test [5] is reported as “prevented, to a large degree, from forming typical β structure”. Moreover, the IL-6 release result in [6] was “induced release”. Besides, in test [6], the TNFα release result is recorded as “induced release”. Moreover, the “Rmax (maximal response)” value in test [7] (LL-37 1-100 μM injected on immobilized Aβ40 (t=0 days), nonlinear fit of SPRi response at equilibrium) is on record as 0.59; in [8] (LL-37 1-100 μM injected on immobilized Aβ42 (t=0 days)), 1.56; in test [9] (LL-37 1-100 μM injected on immobilized Aβ42 (t=24 days)), 4.43. The KA was determined as 120000 M⁻¹ in test [7] (immobilized Aβ40 (t=0 days), equilibrium fit); 75100 M⁻¹ in [8] (immobilized Aβ42 (t=0 days)); 49200 M⁻¹ in test [9] (immobilized Aβ42 (t=24 days)).
